Assay results: paper PMC9241644, “Evaluation of Novel Quorum Sensing Inhibitors Targeting Auto-Inducer 2 (AI-2) for the Control of Avian Pathogenic Escherichia coli Infections in Chickens” (Microbiology Spectrum, 2022)
Values joined by “and” are separate entries in the source; they are usually repeats but may differ in a detail not shown here. Equal values may be shown once.

Key:
APEC = tested on: APEC; parameters: method as in PMID 30270715; details: in vitro; cited from earlier work
Rif^R APEC O78 [1] = test: Comparative efficacy of QSI-5 and SDM in field simulated conditions (built-up floor litter); assay type: in vivo, Escherichia coli
Text: (§1) Chickens were monitored for clinical signs for 8 DPI. Any chickens moribund during this period were humanely euthanized and necropsied to determine bacterial load in the internal organs (liver, heart, lung, and kidney). Internal organs were aseptically collected, weighed and suspended in 1× PBS, the amount of PBS added was adjusted based on the organ size to make a suspension, the organ size and amount of PBS added were included in the final calculation of the CFU. The samples were homogenized, serially diluted 10-fold, plated on MacConkey agar (Remel, CA, USA) containing 50 μg/mL rifampicin, and incubated at 37°C for 24 h to determine the CFU/g. Pathological lesions severity in internal organs (pericarditis, perihepatitis, airsacculitis, and lung congestion) was scored as described previously ([21], [59]). At 8 DPI, the remaining chickens were humanely euthanized and necropsied, lesions were scored, and the APEC load was quantified in internal organs as described above.
To compare the efficacy of QSI-5 with an antibiotic SDM currently used in the field, chickens (n = 70) were raised on built-up floor litter in a field-simulated conditions. One-day-old broiler chickens (Case Farms Ohio Hatchery, OH, USA) were used for conducting the experiment. The optimized dose of QSI-5 (1 mg/L) and the therapeutic dose of SDM (495.323 mg/L) (0.05%) were given in drinking water daily for 7 days (starting from day 5 to day 11 of age). The volume of drinking water needed daily was determined as described above. On day 6, the chickens were infected s/c with Rif^r APEC O78 (5 × 10^6 CFU/chicken, s/c). PC (0.05% DMSO treated and infected) and NC (non-infected and non-treated) control groups were included. The mortality was recorded daily until the end of the experiment (42 days of age: slaughter age). At 8 DPI, half of the chickens from each group were necropsied, lesions were scored, and the APEC load was quantified in the internal organs as described above. The other half of the chickens were raised until day 42 to determine the impact of treatment on the body weight gain and feed intake. To calculate the FCR, body weight was measured once every week and feed intake was recorded every day. On day 42, the remaining chickens were euthanized, body weight was measured and 10 chickens from each group were randomly selected and necropsied, lesions and APEC load were assessed in the internal organs.

Rif^R APEC O78 [2] = test: Optimization of therapeutic dose of QSI-5 in drinking water, APEC-infected chickens; assay type: in vivo, Escherichia coli; details: for mortality reduction compared with PC group: PC normalized to 100%; for Mortality rate % (Nr.) / Average lesion severity, Lung / Average lesion severity, Liver / Average lesion severity, Heart / Average lesion severity, Airsac / Average APEC load, Kidney / Average APEC load, Lung / Average APEC load, Heart / Average APEC load, Liver: Table S2; for Mortality rate % (Nr.): PC 88.9 (8/9); for Average lesion severity, Lung: PC 1.11; for Average lesion severity, Liver: PC 2.11; for Average lesion severity, Heart: PC 2.78; for Average lesion severity, Airsac: PC 3.11; for Average APEC load, Kidney: PC 7.84; for Average APEC load, Lung: PC 7.93; for Average APEC load, Heart: PC 8.37; for Average APEC load, Liver: PC 8.46
Text: as §1
One-day-old broiler chickens (n = 10/group) (Case Farms Ohio Hatchery, Strasburg, OH, USA) were used in this experiment. QSI-5 was synthesized in-house in the Fuchs laboratory (College of Pharmacy, OSU) via reductive amination reaction of commercially available 3-phenylpropionaldehyde with 1-(4-methylbenzyl) piperazine in the presence of acetic acid and sodium triacetoxyborohydride (Fig. S4). QSI-5 was administered daily in drinking water containing 0.05% DMSO at doses of 1 mg/L, 5 mg/L, 10 mg/L, and 20 mg/L for seven consecutive days starting from day 4 to day 10 of age. The amount of drinking water given daily was calculated based on the age of chickens (http://www.poultryhub.org/nutrition/nutrient-requirements/water-consumption-rates-for-chickens/). Chickens were infected with Rif^r APEC O78 (5 × 10^6 CFU/chicken) on day 5 as described above. The PC (0.05% DMSO treated and infected) and NC (non-treated and non-infected) control groups were included. The clinical signs and the daily mortality were recorded for 8 DPI. Dead chickens were necropsied, and APEC load was quantified in the internal organs as mentioned above. At 8 DPI, the remaining chickens were necropsied, lesions were scored, and the APEC load was quantified in internal organs as described above.

Cc1ccc(CN2CCN(CCCc3ccccc3)CC2)cc1 [QSI-5]
effect on the growth of APEC (APEC): does not affect the growth of APEC | Average lesion severity, Lung (Rif^R APEC O78 [1]; Table S3, PC 1.85): 0.21 | Average lesion severity, Liver (Rif^R APEC O78 [1]; Table S3, PC 2.52): 1.68 | Average lesion severity, Airsac (Rif^R APEC O78 [1]; Table S3, PC 3.36): 1.25 | Average lesion severity, Heart (Rif^R APEC O78 [1]; Table S3, PC 3.58): 1.93 | Average APEC load, Liver (Rif^R APEC O78 [1]; Table S3, PC 7.24): 4.95 Log CFU/ g of tissue | Average APEC load, Lung (Rif^R APEC O78 [1]; Table S3, PC 7.68): 4.93 Log CFU/ g of tissue | Average APEC load, Kidney (Rif^R APEC O78 [1]; Table S3, PC 7.73): 5.06 Log CFU/ g of tissue | Average APEC load, Heart (Rif^R APEC O78 [1]; Table S3, PC 7.92): 5.46 Log CFU/ g of tissue | Mortality rate % (Nr.) (Rif^R APEC O78 [1]; Table S3, until 42 days of age, QSI-5 (8/63), SDM (19/65), PC 45.6 (31/68)): 12.7% | reduction in mortality compared with the PC group (Rif^R APEC O78 [1]; built-up floor litter, QSI-5 1 mg/L, SDM 495.3 mg/L (0.05%) in drinking water 7 days, s/c APEC O78 5 × 10^6 CFU/chicken): 88.4% and 72.2% | mortality reduction compared with PC group (Rif^R APEC O78 [2]; QSI-5 1 mg/L in drinking water 7 days, s/c APEC O78 5 × 10^6 CFU/chicken): 58% | mortality reduction compared with PC group (Rif^R APEC O78 [2]; QSI-5 5 mg/L in drinking water 7 days): 25% | mortality reduction compared with PC group (Rif^R APEC O78 [2]; QSI-5 10 mg/L in drinking water 7 days): 50% | mortality reduction compared with PC group (Rif^R APEC O78 [2]; QSI-5 20 mg/L in drinking water 7 days): 25% | Mortality rate % (Nr.) (Rif^R APEC O78 [2]; QSI-5 1 mg/L, (3/8)): 37.5% | Average lesion severity, Lung (Rif^R APEC O78 [2]; QSI-5 1 mg/L): 0.33 | Average lesion severity, Liver (Rif^R APEC O78 [2]; QSI-5 1 mg/L): 1.25 | Average lesion severity, Heart (Rif^R APEC O78 [2]; QSI-5 1 mg/L): 1.63 | Average lesion severity, Airsac (Rif^R APEC O78 [2]; QSI-5 1 mg/L): 1.38 | Average APEC load, Kidney (Rif^R APEC O78 [2]; QSI-5 1 mg/L): 5.06 Log CFU/ g of tissue | Average APEC load, Lung (Rif^R APEC O78 [2]; QSI-5 1 mg/L): 5.68 Log CFU/ g of tissue | Average APEC load, Heart (Rif^R APEC O78 [2]; QSI-5 1 mg/L): 5.71 Log CFU/ g of tissue | Average APEC load, Liver (Rif^R APEC O78 [2]; QSI-5 1 mg/L): 5.33 Log CFU/ g of tissue | Mortality rate % (Nr.) (Rif^R APEC O78 [2]; QSI-5 5 mg/L, (6/9)): 66.6% | Average lesion severity, Lung (Rif^R APEC O78 [2]; QSI-5 5 mg/L): 0.38 | Average lesion severity, Liver (Rif^R APEC O78 [2]; QSI-5 5 mg/L): 1.33 | Average lesion severity, Heart (Rif^R APEC O78 [2]; QSI-5 5 mg/L): 1.89 | Average lesion severity, Airsac (Rif^R APEC O78 [2]; QSI-5 5 mg/L): 1.33 | Average APEC load, Kidney (Rif^R APEC O78 [2]; QSI-5 5 mg/L): 6.10 Log CFU/ g of tissue | Average APEC load, Lung (Rif^R APEC O78 [2]; QSI-5 5 mg/L): 5.86 Log CFU/ g of tissue | Average APEC load, Heart (Rif^R APEC O78 [2]; QSI-5 5 mg/L): 6.09 Log CFU/ g of tissue | Average APEC load, Liver (Rif^R APEC O78 [2]; QSI-5 5 mg/L): 6.03 Log CFU/ g of tissue | Mortality rate % (Nr.) (Rif^R APEC O78 [2]; QSI-5 10 mg/L, (4/9)): 44.4% | Average lesion severity, Lung (Rif^R APEC O78 [2]; QSI-5 10 mg/L): 0.78 | Average lesion severity, Liver (Rif^R APEC O78 [2]; QSI-5 10 mg/L): 2.11 | Average lesion severity, Heart (Rif^R APEC O78 [2]; QSI-5 10 mg/L): 2.44 | Average lesion severity, Airsac (Rif^R APEC O78 [2]; QSI-5 10 mg/L): 2.33 | Average APEC load, Kidney (Rif^R APEC O78 [2]; QSI-5 10 mg/L): 6.20 Log CFU/ g of tissue | Average APEC load, Lung (Rif^R APEC O78 [2]; QSI-5 10 mg/L): 6.37 Log CFU/ g of tissue | Average APEC load, Heart (Rif^R APEC O78 [2]; QSI-5 10 mg/L): 7.32 Log CFU/ g of tissue | Average APEC load, Liver (Rif^R APEC O78 [2]; QSI-5 10 mg/L): 5.84 Log CFU/ g of tissue | Mortality rate % (Nr.) (Rif^R APEC O78 [2]; QSI-5 20 mg/L, (6/9)): 66.6% | Average lesion severity, Lung (Rif^R APEC O78 [2]; QSI-5 20 mg/L): 0.44 | Average lesion severity, Liver (Rif^R APEC O78 [2]; QSI-5 20 mg/L): 1.22 | Average lesion severity, Heart (Rif^R APEC O78 [2]; QSI-5 20 mg/L): 2.11 | Average lesion severity, Airsac (Rif^R APEC O78 [2]; QSI-5 20 mg/L): 1.67 | Average APEC load, Kidney (Rif^R APEC O78 [2]; QSI-5 20 mg/L): 6.56 Log CFU/ g of tissue | Average APEC load, Lung (Rif^R APEC O78 [2]; QSI-5 20 mg/L): 6.58 Log CFU/ g of tissue | Average APEC load, Heart (Rif^R APEC O78 [2]; QSI-5 20 mg/L): 6.69 Log CFU/ g of tissue | Average APEC load, Liver (Rif^R APEC O78 [2]; QSI-5 20 mg/L): 6.53 Log CFU/ g of tissue
